According to ChEMBL document CHEMBL3046775, “Synthesis and evaluation of 7-substituted-3,4-dihydrobenzo[f][1,4]oxazepin-5(2H)-ones as anticonvulsant and hypnotic agents” (Med Chem Res, 2011):
Active and inactive are the calls of the source. The rule behind the calls is not given here.

How the values were obtained:
Mus musculus [1] = assay: Anticonvulsant activity in Mus musculus (mouse) assessed as protection against maximal electroshock-induced seizures at 100 mg/kg, ip administered 30 min prior to electroshock-challenge measured at 4 hr; assay type: functional, organism-based; parameters: dose 100 mg/kg
Mus musculus [2] = assay: Neurotoxicity against Mus musculus (mouse) at 100 mg/kg, ip measured at 0.5 hr by rotarod test; assay type: toxicity, organism-based; parameters: dose 100 mg/kg, route intraperitoneal; conditions: in vivo
Mus musculus [3] = assay: Anticonvulsant activity in Mus musculus (mouse) assessed as protection against maximal electroshock-induced seizures at 100 mg/kg, ip administered 30 min prior to electroshock-challenge measured at 0.5 hr; assay type: functional, organism-based; parameters: dose 100 mg/kg
Mus musculus [4] = assay: Neurotoxicity against Mus musculus (mouse) at 100 mg/kg, ip measured at 4 hr by rotarod test; assay type: toxicity, organism-based; parameters: dose 100 mg/kg, route intraperitoneal; conditions: in vivo
[5] = Protective index, ratio of TD50 for neurotoxicity to ED50 for anticonvulsant activity in mouse; assay type: toxicity, organism-based; conditions: in vivo, read-out: Ratio TD50/ED50
Mus musculus [6] = assay: Anticonvulsant activity in ip dosed Mus musculus (mouse) assessed as protection against maximal electroshock-induced seizures administered 30 min prior to electroshock-challenge measured at 4 hr; assay type: functional
[7] = Neurotoxicity against ip dosed Mus musculus (mouse) by rotarod test; assay type: toxicity, organism-based; conditions: in vivo
Mus musculus [8] = assay: Hypnotic activity in Mus musculus Kunming (mouse) assessed as increase in phenobarbital-induced sleep duration at 60 mg/kg, ip administered 30 min prior to phenobarbital-induction; assay type: functional, organism-based; parameters: dose 60 mg/kg
Mus musculus [9] = assay: Anticonvulsant activity in Mus musculus (mouse) assessed as protection against maximal electroshock-induced seizures at 300 mg/kg, ip administered 30 min prior to electroshock-challenge measured at 4 hr; assay type: functional, organism-based; parameters: dose 300 mg/kg
Mus musculus [10] = assay: Neurotoxicity against Mus musculus (mouse) at 300 mg/kg, ip measured at 0.5 hr by rotarod test; assay type: toxicity, organism-based; parameters: dose 300 mg/kg, route intraperitoneal; conditions: in vivo
Mus musculus [11] = assay: Anticonvulsant activity in Mus musculus (mouse) assessed as protection against maximal electroshock-induced seizures at 300 mg/kg, ip administered 30 min prior to electroshock-challenge measured at 0.5 hr; assay type: functional, organism-based; parameters: dose 300 mg/kg
Mus musculus [12] = assay: Neurotoxicity against Mus musculus (mouse) at 300 mg/kg, ip measured at 4 hr by rotarod test; assay type: toxicity, organism-based; parameters: dose 300 mg/kg, route intraperitoneal; conditions: in vivo
Mus musculus [13] = assay: Hypnotic activity in Mus musculus Kunming (mouse) assessed as increase in phenobarbital-induced sleep duration at 60 mg/kg, ip administered 30 min prior to phenobarbital-induction (reference value: 20.9 +/- 2.31 min); assay type: functional; conditions: route intraperitoneal
Mus musculus [14] = assay: Hypnotic activity in ip dosed Mus musculus Kunming (mouse) assessed as increase in phenobarbital-induced sleep duration administered 30 min prior to phenobarbital-induction; assay type: functional, organism-based
Mus musculus [15] = assay: Hypnotic activity in Mus musculus Kunming (mouse) assessed as increase in phenobarbital-induced sleep duration at 10 mg/kg, ip administered 30 min prior to phenobarbital-induction; assay type: functional, organism-based; parameters: dose 10 mg/kg
Mus musculus [16] = assay: Anticonvulsant activity in Mus musculus (mouse) assessed as protection against maximal electroshock-induced seizures at 30 mg/kg, ip administered 30 min prior to electroshock-challenge measured at 4 hr; assay type: functional, organism-based; parameters: dose 30 mg/kg
Mus musculus [17] = assay: Hypnotic activity in Mus musculus Kunming (mouse) assessed as increase in phenobarbital-induced sleep duration at 30 mg/kg, ip administered 30 min prior to phenobarbital-induction; assay type: functional, organism-based; parameters: dose 30 mg/kg
Mus musculus [18] = assay: Anticonvulsant activity in Mus musculus (mouse) assessed as protection against maximal electroshock-induced seizures at 30 mg/kg, ip administered 30 min prior to electroshock-challenge measured at 0.5 hr; assay type: functional, organism-based; parameters: dose 30 mg/kg

| Compound | Activity (Mus musculus [1]) | Activity (Mus musculus [2]) | Activity (Mus musculus [3]) | Activity (Mus musculus [4]) | selectivity ratio [5] | ED50 (Mus musculus [6]) [mg/kg] | TD50 [7] [mg/kg] | other results |
| --- | --- | --- | --- | --- | --- | --- | --- | --- |
| COc1ccc(COc2ccc3c(c2)C(=O)NCCO3)cc1 | inactive | Non-toxic | inactive | Non-toxic |  |  |  |  |
| CCCCCOc1ccc2c(c1)C(=O)NCCO2 | inactive | Toxic | Active | Non-toxic | 1.9 | 56.8 | 106 |  |
| O=C1NCCOc2ccc(OCc3cccc(F)c3)cc21 | inactive | Toxic | Active | Non-toxic | 1 | 73.1 | 73.1 |  |
| CCOc1ccc2c(c1)C(=O)NCCO2 | inactive | Non-toxic | inactive | Non-toxic |  |  |  |  |
| CCC1(c2ccccc2)C(=O)NC(=O)NC1=O [PHENOBARBITAL] |  |  |  |  |  | 21.8 |  |  |
| CCCCOc1ccc2c(c1)C(=O)NCCO2 | Active | Toxic | Active | Non-toxic |  |  |  |  |
| O=C1NCCOc2ccc(OCc3c(Cl)cccc3Cl)cc21 | inactive | Toxic | inactive | Non-toxic |  |  |  |  |
| O=C1CCc2cc(OCc3ccccc3)ccc2N1 |  |  |  |  |  |  | > 300 |  |
| O=C1NCCOc2ccc(OCc3ccccc3Br)cc21 | inactive | Toxic | inactive | Non-toxic |  |  |  |  |
| CN1CCN(C(=O)OC2c3nccnc3C(=O)N2c2ccc(Cl)cn2)CC1 (stereo not drawn) |  |  |  |  |  |  |  | Activity (Mus musculus [8]): Active |
| Cc1ccc(COc2ccc3c(c2)C(=O)NCCO3)cc1 | inactive | Toxic | inactive | Non-toxic |  |  |  |  |
| CCCCCCCCCCCCOc1ccc2c(c1)C(=O)NCCO2 |  |  |  |  |  |  |  | Activity (Mus musculus [9]): inactive; Activity (Mus musculus [10]): Toxic; Activity (Mus musculus [11]): Active; Activity (Mus musculus [12]): Non-toxic |
| O=C1NCCOc2ccc(OCc3cccc(Cl)c3)cc21 | inactive | Toxic | Active | Non-toxic |  |  |  |  |
| O=C1NCCOc2ccc(OCc3ccc(Cl)cc3)cc21 | inactive | Toxic | inactive | Non-toxic |  |  |  |  |
| O=C1NCCOc2ccc(OCc3ccc(Br)cc3)cc21 |  |  |  |  |  |  |  | Activity (Mus musculus [9]): inactive; Activity (Mus musculus [10]): Toxic; Activity (Mus musculus [11]): Active; Activity (Mus musculus [12]): Non-toxic |
| CCCCCCCCOc1ccc2c(c1)C(=O)NCCO2 | inactive | Toxic | Active | Non-toxic |  |  |  |  |
| CCCCCCCOc1ccc2c(c1)C(=O)NCCO2 |  | Toxic |  | Non-toxic | 2.5 | 19 | 47.3 | Time (Mus musculus [13]): 45.7 min; Activity (Mus musculus [14]): Dose-dependent effect; Activity (Mus musculus [15]): inactive; Activity (Mus musculus [16]): inactive; Activity (Mus musculus [17]): Active; Activity (Mus musculus [18]): Active |
| O=C1NCCOc2ccc(OCc3ccc(F)cc3)cc21 |  |  |  |  |  |  |  | Activity (Mus musculus [9]): Active; Activity (Mus musculus [10]): Toxic; Activity (Mus musculus [11]): Active; Activity (Mus musculus [12]): Non-toxic |
| COc1ccc(COc2ccc3c(c2)C(=O)NCCO3)cc1OC | inactive | Toxic | inactive | Non-toxic |  |  |  |  |
| NC(=O)N1c2ccccc2C=Cc2ccccc21 [CARBAMAZEPINE] |  |  |  |  | 6.4 |  |  |  |
| O=C1NCCOc2ccc(OCc3ccccc3F)cc21 | inactive | Toxic | Active | Non-toxic | 1.2 | 45.6 | 52.8 |  |
| O=C1NCCOc2ccc(OCc3ccccc3Cl)cc21 |  |  |  |  |  |  |  | Activity (Mus musculus [9]): inactive; Activity (Mus musculus [10]): Toxic; Activity (Mus musculus [11]): Active; Activity (Mus musculus [12]): Non-toxic |
| CCCCCCOc1ccc2c(c1)C(=O)NCCO2 | Active | Toxic | Active | Non-toxic | 2.2 | 47.3 | 106 |  |
| O=C1NCCOc2ccc(OCc3ccccc3)cc21 | inactive | Toxic | Active | Non-toxic | 1 | 73.1 | 76.2 |  |
| CCCOc1ccc2c(c1)C(=O)NCCO2 | inactive | Toxic | Active | Non-toxic | 2.2 | 78.3 | 170 |  |
